The results in this text go back to US10765662B2, “Mono- or di-substituted indole derivatives as dengue viral replication inhibitors” (Janssen Pharmaceuticals, Inc., priority 2015, dated 2020).

Each structure is given as a SMILES string.

The subject of series [1] is DENV-2 16681 strain labeled with enhanced green fluorescent protein. Kind of series: DENV-2 antiviral assay (eGFP fluorescence read-out in Vero cells). It counts as cell-based, Dengue virus. The conditions noted are these: Dengue virus, DENV2, Vero, 72 h, DENV-2 16681 eGFP, MOI 0.5, 3 days. The protocol:
The antiviral activity of all the compounds of the invention was tested against the DENV-2 16681 strain which was labeled with enhanced green fluorescent protein (eGPF). The culture medium consists of minimal essential medium supplemented with 2% of heat-inactivated fetal calf serum, 0.04% gentamycin (50 mg/mL) and 2 mM of L-glutamine. Vero cells, obtained from ECACC, were suspended in culture medium and 25 μL was added to 384-well plates (2500 cells/well), which already contain the antiviral compounds. Typically, these plates contain a 5-fold serial dilution of 9 dilution steps of the test compound at 200 times the final concentration in 100% DMSO (200 nL). […] Finally, each plate contains wells which are assigned as virus controls (containing cells and virus in the absence of compound), cell controls (containing cells in the absence of virus and compound) and medium controls (containing medium in the absence of cells, virus and compounds). To the wells assigned as medium control, 25 μL of culture medium was added instead of Vero cells. Once the cells were added to the plates, the plates were incubated for 30 minutes at room temperature to allow the cells to distribute evenly within the wells. Next, the plates were incubated in a fully humidified incubator (37° C., 5% CO2) until the next day. Then, DENV-2 strain 16681, labeled with eGFP, was added at a multiplicity of infection (MOI) of 0.5. Therefore, 15 μL of virus suspension was added to all the wells containing test compound and to the wells assigned as virus control. In parallel, 15 μL of culture medium was added to the medium and cell controls. Next, the plates were incubated for 3 days in a fully humidified incubator (37° C., 5% CO2). At the day of the read out, the eGFP fluorescence was measured using an automated fluorescence microscope at 488 nm (blue laser). Using an in-house LIMS system, inhibition dose response curves for each compound were calculated and the half maximal effective concentration (EC50) was determined. Therefore, the percent inhibition (I) for every test concentration is calculated using the following formula: I=100*([…])/(SVC−SCC); ST, SCC and SVC are the amount of eGFP signal in the test compound, cell control and virus control wells, respectively. The EC50 represents the concentration of a compound at which the virus replication is inhibited with 50%, as measured by a 50% reduction of the eGFP fluorescent intensity compared to the virus control. The EC50 is calculated using linear interpolation (Table 1).

A further series is described as follows: in vitro. The format is cell-based. The conditions noted are these: African green monkey, CC50. Here is the method:
In parallel, the toxicity of the compounds was assessed on the same plates. Once the read-out for the eGFP signal was done, 40 μL of ATPlite, a cell viability stain, was added to all wells of the 384-well plates. ATP is present in all metabolically active cells and the concentration declines very rapidly when the cells undergo necrosis or apoptosis. The ATPLite assay system is based on the production of light caused by the reaction of ATP with added luciferase and D-luciferin. The plates were incubated for 10 minutes at room temperature. Next, the plates were measured on a ViewLux. The half maximal cytotoxic concentration (CC50) was also determined, defined as the concentration required to reduce the luminescent signal by 50% compared to that of the cell control wells. Finally, the selectivity index (SI) was determined for the compounds, which was calculated as followed: SI=CC50/EC50.

As a reminder, the EC50 is the concentration at which the effect is half-maximal. For orientation: CC50 means the concentration that lowers cell viability or growth by half. A higher CC50 goes with lower toxicity to the cells. As a reminder, the melting point is the temperature of the solid-liquid transition. Compound `COc1cc(NC(C(=O)c2c[nH]c3c(C)c(Cl)ccc23)c2ccc(Cl)cc2OCCO)cc(S(C)(=O)=O)c1` (racemic) [Compound 5, 2-(4-chloro-2-(2-hydroxyethoxy)phenyl)-1-(6-chloro-7-methyl-1H-indol-3-yl)-2-((3-methoxy-5-(methylsulfonyl)phenyl)amino)ethanone] showed a melting point of 206 °C. Also, in series [1], the EC50 is 0.1 nM. In “in vitro”, this compound displayed a CC50 of 4300 nM.

`COc1cc(NC(C(=O)c2c[nH]c3cc(OC)ccc23)c2ccc(Cl)cc2OCCO)cc(S(C)(=O)=O)c1` (racemic) [Compound 3, 2-(4-chloro-2-(2-hydroxyethoxy)phenyl)-1-(6-methoxy-1H-indol-3-yl)-2-((3-methoxy-5-(methylsulfonyl)phenyl)amino)ethanone]: the melting point turned out to be 149 °C. In addition, the EC50 in series [1] was found to be 0.54 nM. In the series “in vitro”, this compound had a CC50 of 12000 nM.

With `COc1cc(NC(C(=O)c2c[nH]c3cc(Cl)ccc23)c2ccc(Cl)cc2OCCO)cc(S(C)(=O)=O)c1` (racemic) [Compound 2, 1-(6-chloro-1H-indol-3-yl)-2-(4-chloro-2-(2-hydroxyethoxy)phenyl)-2-((3-methoxy-5-(methylsulfonyl)phenyl)amino)ethanone], the melting point stood at 121 °C. In addition, the EC50 in series [1] is 0.27 nM. In addition, in the series “in vitro”, the CC50 came to 4200 nM.

`COc1cc(NC(C(=O)c2c[nH]c3cc(OC)c(OC(F)(F)F)cc23)c2ccc(Cl)cc2OCCO)cc(S(C)(=O)=O)c1` (racemic) [Compound 11, 2-(4-chloro-2-(2-hydroxyethoxy)phenyl)-2-((3-methoxy-5-(methylsulfonyl)phenyl)amino)-1-(6-methoxy-5-(trifluoromethoxy)-1H-indol-3-yl)ethanone] registered a melting point of 212 °C. The EC50 in series [1] was determined as 0.2 nM. In the series “in vitro”, the CC50 was > 2500 nM.
